Among the data in ChEMBL document CHEMBL1141696 (Bioorg Med Chem Lett, 2008) are Ki, Activity and ED50 values, retold here.

A short description of experiment [1]: Binding affinity to delta opioid receptor in guinea pig forebrain. Further details: species or system Cavia porcellus.
Experiment [2] deals with Mus musculus. As to the kind of experiment: Antinociceptive activity in sc dosed mouse assessed as attenuation of acetic acid-induced writhing per 10 mins. Format: functional. For orientation: In writhing tests, fewer writhes than in controls are read as antinociception.

In experiment [1], `CC(C)CN1CC[C@]23c4c5ccc(O)c4O[C@H]2C(=O)CC[C@@]3(O)[C@H]1C5` returned a Ki of 229 nM. Further, in experiment [2], the Activity result is “Dose-dependent effect” and the ED50 was determined as 5.05 mg/kg.

Take `O=C1CC[C@@]2(O)[C@H]3Cc4ccc(O)c5c4[C@@]2(CCN3CC2CC2)[C@H]1O5` [NALTREXONE]: the Ki in experiment [1] turned out to be 20.7 nM.

One may read the Ki as the dissociation constant of the complex between target and ligand, obtained from inhibition or displacement. Higher therefore signals a looser hold on the target. Broadly, the ED50 is the dose that gives a 50% effect, or the effect in half of the subjects.
